Laboratory results taken from US9987247B2, “Drugs for treating diseases of cervical and/or lumbar vertebrae” (priority 2013, dated 2018).

Experiments:
[1] = test system: lumbar disc herniation; assay: Treatment of patients with lumbar disc herniation with oral benzbromarone (case reports); type: in vivo, human
[2] = test system: cervical disc herniation / cervical disease; assay: Treatment of patients with cervical disc herniation / cervical disease with oral benzbromarone (case reports); type: in vivo, human
Text: The clinical effect criteria of the drug of the present application for treating cervical spondylosis can also be evaluated 2 weeks after treatment.

[3] = Patient A, 100 mg first day then 50 mg once a day, after five days
[4] = Patient A, 100 mg first day then 50 mg once a day, after two days
[5] = Patient B, 50 mg once a day, after seven days
[6] = Patient C, 12.5 mg once a day, after continuous administration for six days
[7] = Patient H, 100 mg once a day plus sodium bicarbonate, after six days
[8] = Patient L, 100 mg once a day plus sodium bicarbonate, after seven days

Which results are given for `CCc1oc2ccccc2c1C(=O)c1cc(Br)c(O)c(Br)c1` [benzbromarone]?
painful symptoms ([1]; Patient A, about 75 kg, once a day, 100 mg first day then 50 mg, after one day): lessened; pain [1, 3]: basically disappeared; walking [1, 3]: could walk properly; ability to walk [1, 4]: able to walk; painful symptoms [1, 4]: alleviated obviously; recurrence of symptoms ([1]; Patient A, within the next six months): haven't occurred; painful symptoms ([1]; Patient B, about 60 kg, 50 mg once a day, waist massage first two days, after two days): alleviated obviously; ability to walk and work [1, 5]: able to walk and work; pain during severe coughing [1, 5]: no perceptible pain; waist pain [1, 5]: basically disappeared; recurrence ([1]; Patient B, within the next three months): no recurrence; pain ([1]; Patient C, 12.5 mg once a day, waist massage first two days, six days later): significantly lessened; symptoms of pain [1, 6]: disappeared; walking and ability to work [1, 6]: walked properly and was able to work; Straight leg raising test ([1]; Patient C, 12.5 mg once a day, after continuous administration for six days, positive before treatment): negative; recurrence ([1]; Patient C, within the next two months): no recurrence; pain ([1]; Patient D, L4/5 protrusion, 50 mg once a day, no other treatment, three days later): significantly lessened; walking, ability to work, pain ([1]; Patient D, 50 mg once a day, after six days): walked properly and was able to work without pain; Straight leg raising test ([1]; Patient D, 50 mg once a day, after six days, positive before treatment): negative; recurrence ([1]; Patient D, within the next three months): no recurrence; pain ([1]; Patient F, about 25 mg once a day, waist massage first three days, three days later): significantly lessened; walking ([1]; Patient F, about 25 mg once a day, after six days): walked properly; ability to walk ([1]; Patient F, about 25 mg once a day, three days later): able to walk; recurrence ([1]; Patient F, within the next two months): no recurrence; pain ([1]; Patient H, about 62 kg, L3/4 protrusion, 100 mg once a day plus sodium bicarbonate tablets 0.5 g three times a day, two days later): significantly reduced; pain when coughing [1, 7]: no pain was felt; waist pain [1, 7]: basically disappeared; walking and ability to work [1, 7]: could walk normally, and was able to work; Straight leg raising test ([1]; Patient H, 100 mg once a day plus sodium bicarbonate, after six days, positive before treatment): negative; recurrence ([1]; Patient H, within the next three months): No recurrence; pain [1, 8]: basically disappeared; walking and work ability [1, 8]: normal walking, work ability recovery; Bragard test ([1]; Patient L, 100 mg once a day plus sodium bicarbonate, after seven days, positive before treatment): negative; relapse ([1]; Patient L, during the following two months): no relapse; symptoms in pain, upper limbs numbness and dizziness ([2]; Patient E, cervical intervertebral disc herniation, about 50 mg once a day, no other treatment, six days later): relieved; pain and dizziness symptoms ([2]; Patient G, cervical disease, about 25 mg once a day, neck massage first three days, eight days later): disappeared; Fenz signs ([2]; Patient G, about 25 mg once a day, eight days later, positive before treatment): negative; dizziness symptoms ([2]; Patient I, about 55 kg, cervical disc herniation, capsules 50 mg twice a day plus sodium bicarbonate tablets 0.5 g three times a day, after three days): reduced significantly; pain and dizziness symptoms ([2]; Patient I, capsules 50 mg twice a day plus sodium bicarbonate, after eight days): disappeared; flexion neck rotation test ([2]; Patient I, capsules 50 mg twice a day plus sodium bicarbonate, after eight days, positive before treatment): negative; recurrence ([2]; Patient I, within the next one months): no recurrence
